The values below come from US20090099238A1, “USE OF A PPAR-ALPHA AGONIST TO TREAT PATIENTS SUFFERING FROM WEIGHT GAIN ASSOCIATED WITH A PPAR-GAMMA AGONIST TREATMENT” (priority 2003, published 2009).

Assay [1] is described as follows: Body weight (gain) in obese Zucker rats under fenofibrate, rosiglitazone or co-administration (Example 1). Type of assay: in vivo. On the procedure: (§1) Male homozygous Zucker rats of 9 to 11 weeks of age and their lean controls were received from Iffa-Credo (France). They were put into individual cages in a temperature-, humidity- and light-controlled room (21-23° C., 12-12 h light-dark cycle). […] After acclimatization, they were randomized into groups of 10, based on body weight.
(§2) The experimental groups were: Group 1=lean rats, untreated; Group 2=obese rats, treated with the vehicle p.o., twice daily (at 8 a.m. and 8 p.m.); Group 3=obese rats, treated with Fenofibrate, 100 mg/kg, p.o., twice daily (at 8 a.m. and 8 p.m.); Group 4=obese rats, treated with Rosiglitazone. 0.3 mg/kg, p.o., twice daily (at 8 a.m. and 8 p.m.); Group 5=obese rats, treated with Rosiglitazone, 3.0 mg/kg., p.o., twice daily (at 8 a.m. and 8 p.m.); Group 6=obese rats, treated with Fenofibrate, 100 mg/kg and Rosiglitazone, 0.3 mg/kg, p.o., twice daily (at 8 a.m. and 8 p.m.); Group 7=obese rats, treated with Fenofibrate, 100 mg/kg and Rosiglitazone, 3.0 mg/kg, p.o., twice daily (at 8 a.m. and 8 p.m.).
(§3) The following parameters were monitored: glycemia (mg/dl) and body weight gain (g).

The nature of assay [2]: Glycemia in obese Zucker rats under fenofibrate, rosiglitazone or co-administration (Example 1). Type of assay: in vivo. On the procedure:
as §1, §2, §3

The conditions of assay [3]: fatty Zucker rats; cited from earlier work.
The mark [4] stands for this setting: Group 3: Fenofibrate 100 mg/kg p.o. twice daily, after 41 days of treatment.
Where [5] appears, read: Group 3: Fenofibrate 100 mg/kg p.o. twice daily, after 69 days of treatment.
The mark [6] stands for this setting: Group 4: Rosiglitazone 0.3 mg/kg p.o. twice daily, after 41 days of treatment.
The mark [7] stands for this setting: Group 4: Rosiglitazone 0.3 mg/kg p.o. twice daily, after 69 days of treatment.
[8] abbreviates: Group 5: Rosiglitazone 3.0 mg/kg p.o. twice daily, after 41 days of treatment.
[9] abbreviates: Group 5: Rosiglitazone 3.0 mg/kg p.o. twice daily, after 69 days of treatment.

Take `CC(C)OC(=O)C(C)(C)Oc1ccc(C(=O)c2ccc(Cl)cc2)cc1` [Fenofibrate, fenofibrate]: the “Body Weight” value in assay [1] (setting [4]) is recorded as 357.0 ± 7.9 g; in assay [1] (setting [5]), 380.6 ± 13.7 g. Further, the Glycemia in assay [2] (setting [4]) amounted to 222.2 ± 53.1 mg/dL; in assay [2] (setting [5]) it was 372.5 ± 78.5 mg/dL.
`COc1ccc(CC2SC(=O)NC2=O)cc1C(=O)NCc1ccc(C(F)(F)F)cc1` (stereo not drawn) [KRP 297]: in assay [3], the “body weight gain (result in words)” value was “no change in body weight gain”; the “serum insulin (result in words)” value is “affected serum triglycerides and insulin”; the “serum triglycerides (result in words)” value was “affected serum triglycerides and insulin”.
For `CN(CCOc1ccc(CC2SC(=O)NC2=O)cc1)c1ccccn1` (stereo not drawn) [Rosiglitazone, rosiglitazone], the “Body Weight” value in assay [1] (setting [6]) is given as 538.5 ± 15.8 g; in assay [1] (setting [7]) it was 615.2 ± 25.9 g; in assay [1] (setting [8]) it was 601.4 ± 9.3 g; in assay [1] (setting [9]), 721.0 ± 12.3 g. Besides, the Glycemia came to 274.6 ± 56.4 mg/dL in assay [2] (setting [6]), 446.0 ± 52.4 mg/dL in assay [2] (setting [7]), 119.6 ± 5.9 mg/dL in assay [2] (setting [8]) and 151.4 ± 6.5 mg/dL in assay [2] (setting [9]).
